Here are results for 33 molecules from ChEMBL document CHEMBL2016513, “Synthesis and evaluation of human phosphodiesterases (PDE) 5 inhibitor analogs as trypanosomal PDE inhibitors. Part 1. Sildenafil analogs” (Bioorg Med Chem Lett, 2012).

Data set [1] has as its target T1, Class 1 phosphodiesterase PDEB1 (Trypanosoma brucei) (UniProt Q8WQX9).
T1 sequence (whole entry): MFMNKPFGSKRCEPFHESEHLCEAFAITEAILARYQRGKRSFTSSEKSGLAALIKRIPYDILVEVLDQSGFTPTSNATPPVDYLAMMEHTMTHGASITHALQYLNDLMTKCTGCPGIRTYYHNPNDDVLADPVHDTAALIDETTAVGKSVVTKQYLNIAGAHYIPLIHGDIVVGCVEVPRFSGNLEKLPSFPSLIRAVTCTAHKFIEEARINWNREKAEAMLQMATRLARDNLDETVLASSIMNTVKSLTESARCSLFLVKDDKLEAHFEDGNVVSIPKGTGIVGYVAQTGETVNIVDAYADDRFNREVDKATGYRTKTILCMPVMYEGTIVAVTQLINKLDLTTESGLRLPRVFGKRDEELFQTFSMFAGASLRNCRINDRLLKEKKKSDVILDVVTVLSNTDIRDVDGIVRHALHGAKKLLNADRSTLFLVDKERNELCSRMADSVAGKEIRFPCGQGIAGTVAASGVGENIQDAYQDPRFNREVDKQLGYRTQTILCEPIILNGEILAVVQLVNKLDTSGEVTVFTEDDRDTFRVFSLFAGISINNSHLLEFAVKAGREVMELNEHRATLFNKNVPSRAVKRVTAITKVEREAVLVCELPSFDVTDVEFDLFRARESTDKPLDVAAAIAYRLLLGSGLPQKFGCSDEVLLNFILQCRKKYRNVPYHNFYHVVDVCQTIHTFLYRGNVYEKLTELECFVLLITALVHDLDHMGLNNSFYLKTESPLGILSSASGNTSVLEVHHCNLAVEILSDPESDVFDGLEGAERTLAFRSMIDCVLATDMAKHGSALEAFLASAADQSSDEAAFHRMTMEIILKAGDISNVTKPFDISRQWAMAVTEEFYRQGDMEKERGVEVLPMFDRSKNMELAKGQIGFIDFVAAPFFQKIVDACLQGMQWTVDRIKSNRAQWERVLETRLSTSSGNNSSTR
Briefly: Inhibition of Trypanosoma brucei PDEB1 at 100 uM.

The nature of data set [2]: Solubility of the compound in 10% DMSO. In kind it is physicochemical.

The term inhibition denotes how much of the control response was suppressed. High values mean a strong effect, low ones a weak effect.

The structures appear in SMILES notation.

The molecule `CCOc1ccc(S(=O)(=O)N2CCN(C)CC2)cc1-c1nc2c(-c3ccccc3)n[nH]c2c(=O)[nH]1` came in with an inhibition in data set [1] of 70.9%.

For `CCCc1nn(C)c2c(=O)[nH]c(-c3cccc(S(=O)(=O)N4CCN(C)CC4)c3)nc12`, the inhibition in data set [1] is 8.4%.

`CCCc1nn(C)c2c(=O)[nH]c(-c3ccc(O)cc3)nc12` registered an inhibition in data set [1] of 24%.

As for `CCCc1nn(C)c2c(=O)[nH]c(-c3nnco3)nc12`, in data set [1], the inhibition worked out at 3.2%.

Molecule `CCCc1nn(C)c2c(=O)[nH]c(-c3cnccn3)nc12` showed an inhibition in data set [1] of 6.5%.

For the molecule `CCCc1nn(C)c2c(=O)[nH]c(-c3cn(C)cn3)nc12`, the inhibition in data set [1] was 5.3%.

In data set [1], `CCCc1nn(-c2cccnc2)c2c(=O)[nH]c(-c3cc(S(=O)(=O)N4CCN(C)CC4)ccc3OCC)nc12` registered an inhibition of 32.4%.

For `CCOc1ccc(S(=O)(=O)N2CCN(C)CC2)cc1-c1nc2c(-c3ccccc3)nn(C)c2c(=O)[nH]1`, the inhibition in data set [1] came out at 17.5%.

For `CCCc1n[nH]c2c(O)nc(-c3ccccc3OCC)nc12`, the solubility result in data set [2] is “Insoluble”.

Take `CCCc1nn(C)c2c(=O)[nH]c(-c3oc(C)nc3C)nc12`: the inhibition in data set [1] came to 29%.

In turn, `CCCc1nn(C)c2c(=O)[nH]c(-c3cc(S(=O)(=O)N4CCN(C)CC4)ccc3OCC)nc12` gave an inhibition in data set [1] of 51.5%.

In data set [1], `CCCc1nn(C)c2c(=O)[nH]c(-c3cnc(C)cn3)nc12` showed an inhibition of 30%.

Turning to `CCOc1ccc(S(=O)(=O)N2CCN(C)CC2)cc1-c1nc2c(C)nn(C)c2c(=O)[nH]1`, the solubility result in data set [2] is given as “Insoluble”.

Take `CCCc1nn(C)c2c(=O)[nH]c(-c3snnc3C)nc12`: in data set [1], the inhibition worked out at 16.3%.

In turn, `CCCc1nn(C)c2c(=O)[nH]c(-c3ccc(=O)[nH]n3)nc12` returned an inhibition in data set [1] of 11.1%.

As for `CCOc1ccccc1-c1nc2c(-c3ccccc3)n[nH]c2c(=O)[nH]1`, the inhibition in data set [1] was 22.9%.

As for `CCCc1nn(C)c2c(=O)[nH]c(-c3cccnc3OC)nc12`, the inhibition in data set [1] was determined as 77.2%.

Turning to `CCCc1nn(C)c2c(=O)[nH]c(-c3ccsc3)nc12`, the solubility entry in data set [2] was “Insoluble”.

`CCCc1nn(C)c2c(=O)[nH]c(-c3cscn3)nc12`: the inhibition in data set [1] amounted to 25.4%.

Take `CCOc1ccccc1-c1nc2c(-c3ccccc3)nn(CC(N)=O)c2c(=O)[nH]1`: the inhibition in data set [1] was found to be 7%.

In turn, `CCCc1nn(C)c2c(=O)[nH]c(-c3cn(C)nc3C)nc12` displayed an inhibition in data set [1] of 7.2%.

Turning to `CCCc1nn(C)c2c(=O)[nH]c(-c3cccnc3OCC)nc12`, the inhibition in data set [1] is 41.5%.

`CCCc1n[nH]c2c(=O)[nH]c(-c3cc(S(=O)(=O)N4CCN(C)CC4)ccc3OCC)nc12` gave an inhibition in data set [1] of 16%.

As for `CCCc1nn(C)c2c(=O)[nH]c(-c3cccnc3OC(C)C)nc12`, the inhibition in data set [1] came to 53.8%.

`CCCc1nn(C)c2c(=O)[nH]c(-c3cccnc3O)nc12` came in with an inhibition in data set [1] of 22.5%.

`CCOc1ccc(S(=O)(=O)N2CCN(C)CC2)cc1-c1nc2cnn(C)c2c(=O)[nH]1` displayed an inhibition in data set [1] of 13.6%.

For `CCOc1ccccc1-c1nc2c(-c3ccccc3)nn(-c3cccnc3)c2c(=O)[nH]1`, the solubility entry in data set [2] was “Insoluble”.

As for `CCCc1nn(C)c2c(=O)[nH]c(-c3nccnc3N)nc12`, the inhibition in data set [1] is 14.1%.

`CCCc1nn(C)c2c(=O)[nH]c(-c3ccccc3OCC)nc12`: the inhibition in data set [1] turned out to be 21.8%.

As for `CCCc1nn(C)c2c(=O)[nH]c(-c3ccnn3C)nc12`, the solubility result in data set [2] is given as “Insoluble”.

In the case of `CCOc1ccccc1-c1nc2c(-c3ccccc3)nn(-c3ccccc3)c2c(=O)[nH]1`, the solubility entry in data set [2] was “Insoluble”.

For the molecule `CCCc1nn(C)c2c(=O)[nH]c(-c3ccoc3)nc12`, the inhibition in data set [1] stood at 13.8%.

In data set [1], `CCCc1nn(C)c2c(=O)[nH]c(-c3ncccc3C)nc12` came in with an inhibition of 72.1%.
